Test results from PMC8961587, “Synthesis and Structure–Activity Relationships of Novel Non-Steroidal CYP17A1 Inhibitors as Potential Prostate Cancer Agents” (Biomolecules, 2022).

Target: T1, CYP17A1 (Homo sapiens, UniProt P05093)
T1 sequence (P05093 1-508): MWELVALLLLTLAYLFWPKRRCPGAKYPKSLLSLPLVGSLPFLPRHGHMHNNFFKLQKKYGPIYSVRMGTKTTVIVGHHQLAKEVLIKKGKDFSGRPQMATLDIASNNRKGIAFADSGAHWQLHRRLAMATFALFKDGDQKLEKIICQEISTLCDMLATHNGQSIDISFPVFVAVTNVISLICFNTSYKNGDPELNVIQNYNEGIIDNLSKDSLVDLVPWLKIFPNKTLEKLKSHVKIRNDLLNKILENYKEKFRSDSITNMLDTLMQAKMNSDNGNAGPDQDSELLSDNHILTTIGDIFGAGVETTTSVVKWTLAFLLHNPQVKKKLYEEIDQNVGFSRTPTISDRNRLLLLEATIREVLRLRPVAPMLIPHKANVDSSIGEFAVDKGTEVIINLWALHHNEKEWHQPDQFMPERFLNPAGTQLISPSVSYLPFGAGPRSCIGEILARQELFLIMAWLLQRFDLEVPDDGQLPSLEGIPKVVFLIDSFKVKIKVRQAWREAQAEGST
Experiment: […]α-hydroxylase activity, conversion of […]-progesterone to […]OH-progesterone, TLC; enzyme source not given
Format: cell-based

Row | Structure (SMILES) | IC50 [nM]
1 | c1ccc2c(c1)ncn2-c1ccc(NC2CCCCC2)cc1 [compound 2] | 1200
2 | Cc1cc(Nc2cccnc2)ccc1-n1ccc2ccccc21 [compound 20] | 2600
